Entries after “also recorded” stand apart in the source; their conditions may differ. Where no end group is shown, it is not given here. [ ]: non-standard residue; d: D form. Nle = CCCC[C@H](N)C(=O)O
What was measured:
[1] = Unspecified test of effectiveness of AII fragments; conditions: test not specified
[2] = test system: 2 cm midline laparotomy incision; experiment: Anti-scarring effect after rat laparotomy (Example 1); assay type: in vivo, Sprague Dawley rats; conditions: 100 μg/kg/day subcutaneously, 3 days prior to surgery and 11 days until necropsy; 11 day post-operative observation
Method: Female Sprague Dawley rats, weighing between 175 and 225 grams each, were used in this study. The rats were quarantined at least two days prior to surgery. The rats were housed in the University of Southern California vivarium on a 12:12 hour light/dark cycle. Food and water were available ad libitum except in the immediate postoperative period.
The rats underwent a standardized procedure for laparotomy (intramuscular anesthesia with ketamine/rompum, shaving with animal clippers, betadine scrub, alcohol scrub). A 2 cm incision was then made on the midline. A double-walled gelatin capsule was placed on the right side of the abdomen through the incision. The animals were subcutaneously injected with the peptides (detailed below) (100 μg/kg/day) for 3 days prior to surgery, and then for 11 days until necropsy. The abdominal wall and skin was then sutured closed using two layers of 4-0 Ethilon suture. Following surgery, the rats received analgesic for three days and were observed twice daily for signs of morbidity and mortality.

[3] = test system: cultured cells that are involved in wound repair; conditions: cited from earlier work
rabbit corneal eye = rabbit corneal eye model; cited from earlier work
[4] = test system: primary human keratinocytes; conditions: via a non-AT1, non-AT2 receptor; cited from earlier work
[5] = test system: chick chorioallantoic membrane; conditions: chick chorioallantoic membrane model; cited from earlier work
wound tissue = conditions: application to wound tissue; cited from earlier work
[6] = test system: full thickness incision wounds; experiment: Rat full thickness incision model (Example 2); assay type: in vivo, Sprague Dawley rats; conditions: for early inflammation and wound dehiscence / number of incisions that were free of scar / overall scar formation: into the subcutaneous space prior to closure with DermaBond; for early inflammation and wound dehiscence: FIG. 1, day 5; for number of incisions that were free of scar: later time points after healing, FIG. 2, days 14, 19, 21; for overall scar formation: later time points, FIG. 3, scar score rank days 14 and 19; for healing time / number of incisions with no scar by gross observations: repeated; for healing time: systemic administration (especially pretreatment with 100 μg/kg body weight/day of 9GD), FIGS. 4-6; for number of incisions with no scar by gross observations: systemic administration, FIGS. 7-9, days 14 and 21
Method: This study was designed to compare the effect of a daily administration of AII(1-7) and 9GD on the healing of full thickness incision wounds in a rat model. For topical administration, the viscous vehicle was prepared from carboxymethylcellulose (CMC sodium salt, low viscosity, Sigma Chemical CO., St. Louis, Mo. (Lot number 34H0310)), consisting of 10% low viscosity CMC in 0.05 M phosphate buffer, pH 7.2, and was sterilized by autoclaving followed by mixing with sterile peptide solutions or DermaBond (provided by Ethicon, Inc.), AII(1-7) and 9GD were prepared by Bachem (Torrence, Calif.) under GMP conditions.
During the experimental period, Sprague Dawley rats (5 per group) were used in this study. The rats were housed one per cage in the University of Southern California vivarium on a 12:12 hour light/dark cycle. Food and water were available ad libitum.
On the dorsal surface of the rats, two full thickness incisions (approximately 3 cm in length) were made on a prepared surface under aseptic conditions. After injury, placebo or AII(1-7) (100 μg/wound [topical], or 100 μg/kg body weight [systemic]) or 9GD (10, 100, or 500 μg/wound [topical], or 10, 100, or 500 μg/kg body weight [systemic]) was administered. The wound was sutured closed (if the peptide was not given in an adhesive base) or was closed with […] (in groups that have the peptide administered with cyanoacrylate (DermaBond™)).
The animals were monitored for breathing, urination, and movement during the postoperative interval. Postoperative analgesic included twice daily administration of bupronex for 3 days post-operation. […] On day 21, the rats were euthanized by CO2 asphyxiation and tissues were harvested for histologic preparation.
Scar formation was assessed grossly, including assessment of inflammationh, dehiscence, scabbing, healing (defined as % of incision healed), and scarring. Inflammation, dehiscence, scabbing, and scarring were assessed on a 4 point scale (0, 1, 2, or 3) for none, mild, moderate, and severe, respectively. The severity of the scar was defined by the appearance of disruption, the contour of the healing site, the raising of the healing area, and the ability to note by gross observation that the wound had been made.

[7] = single dose in CMC in the subcutaneous space, FIG. 10
[8] = single dose in CMC in the subcutaneous space, FIG. 11

Substance	effectiveness [1]	scar apparent upon gross observation [2]	wound closure [2]	early inflammation and wound dehiscence [6]	number of incisions that were free of scar [6]	overall scar formation [6]	healing time [6]	number of incisions with no scar by gross observations [6]	healing [6, 7]	scar formation [6, 8]	healing ([6]; single dose, systemic)	scar formation ([6]; single dose, systemic)	further results
Tyr-Ile-His-Pro-Phe (YIHPF) [AII(4-8)]	not to be effective; also recorded: ineffective	–	–	–	–	–	–	–	–	–	–	–	–
DRKYIHP [5GD]	–	no scar was apparent	complete	–	–	–	–	–	–	–	–	–	–
Asp-Arg-Val-Tyr-Ile-His-Pro-Phe [AII]	–	–	–	–	–	–	–	–	–	–	–	–	mitogenesis and chemotaxis [3]: increases; release of growth factors and extracellular matrices [3]: increases; angiogenic (rabbit corneal eye): angiogenic; proliferation of primary human keratinocytes [4]: stimulate proliferation; angiogenic [5]: angiogenic; rate of wound healing (wound tissue): significantly increases
His-Pro-Phe (HPF) [AII(6-8)]	not to be effective	–	–	–	–	–	–	–	–	–	–	–	–
Asp-Arg-Val-Tyr-Ile-His-Pro (DRVYIHP) [AII(1-7)]	–	–	–	reduced	increased	increased	accelerated	increased	accelerated healing	reduced scar formation	did not accelerate healing	did reduce scar formation	–
DR(nor)YIHP (DR[Nle]YIHP) [9GD]	–	no scar was apparent	complete	reduced	increased	increased	accelerated	increased	accelerated healing	reduced scar formation	did not accelerate healing	did reduce scar formation	–

Source: US6730775B1, “Methods for limiting scar and adhesion formation” (University of Southern California, priority 1999, dated 2004)
